{"source": "ChEMBL document CHEMBL1944514", "about": "“Fluorescence detection of single nucleotide polymorphisms using nucleic acid probe containing tricyclic base-linked acyclonucleoside” (Bioorg Med Chem Lett, 2012)", "type_in_all_cases": "nucleic-acid assay", "key": {"Nucleic Acid [1]": {"tested_on": "Nucleic Acid", "assay": "Binding affinity to 3'-r(CUUCCAGUUACAUAGAGA)-5' RNA assessed as fluorescence quenching by spectrophotometry"}, "Nucleic Acid [2]": {"tested_on": "Nucleic Acid", "assay": "Binding affinity to 3'-r(CUUCCAGUUGCAUAGAGA)-5' RNA assessed as fluorescence quenching by spectrophotometry"}, "Nucleic Acid [3]": {"tested_on": "Nucleic Acid", "assay": "Binding affinity to 3'-r(CUUCCAGUUCCAUAGAGA)-5' RNA assessed as fluorescence quenching by spectrophotometry"}, "Nucleic Acid [4]": {"tested_on": "Nucleic Acid", "assay": "Binding affinity to 3'-r(CUUCCAGUUUCAUAGAGA)-5' RNA assessed as fluorescence quenching by spectrophotometry"}}, "note": "Active and inactive are the calls of the source. The calls are words filed in the database; no cut-off is given here."}
{"compound": "Cc1cn([C@H]2C[C@H](OP(=O)(O)OC[C@H]3O[C@@H](n4ccc(N)nc4=O)C[C@@H]3OP(=O)(O)OC[C@H]3O[C@@H](n4cnc5c(N)ncnc54)C[C@@H]3OP(=O)(O)OC[C@H]3O[C@@H](n4cnc5c(N)ncnc54)C[C@@H]3OP(=O)(O)OC[C@H](Cn3cnc4cc5c(N)ncnc5nc43)OP(=O)(O)OC[C@H]3O[C@@H](n4cc(C)c(=O)[nH]c4=O)C[C@@H]3OP(=O)(O)OC[C@H]3O[C@@H](n4cnc5c(=O)[nH]c(N)nc54)C[C@@H]3OP(=O)(O)CC[C@H]3O[C@@H](n4cc(C)c(=O)[nH]c4=O)C[C@@H]3OP(=O)(O)OC[C@H]3O[C@@H](n4cnc5c(N)ncnc54)C[C@@H]3OP(=O)(O)OC[C@H]3O[C@@H](n4cc(C)c(=O)[nH]c4=O)C[C@@H]3OP(=O)(O)OC[C@H]3O[C@@H](n4ccc(N)nc4=O)C[C@@H]3OP(=O)(O)OC[C@H]3O[C@@H](n4cc(C)c(=O)[nH]c4=O)C[C@@H]3OP(=O)(O)OC[C@H]3O[C@@H](n4ccc(N)nc4=O)C[C@@H]3OP(=O)(O)OC[C@H]3O[C@@H](n4cc(C)c(=O)[nH]c4=O)C[C@@H]3O)[C@@H](COP(=O)(O)O[C@H]3C[C@H](n4cnc5c(=O)[nH]c(N)nc54)O[C@@H]3COP(=O)(O)O[C@H]3C[C@H](n4cnc5c(=O)[nH]c(N)nc54)O[C@@H]3COP(=O)(O)O[C@H]3C[C@H](n4cnc5c(N)ncnc54)O[C@@H]3COP(=O)(O)O[C@H]3C[C@H](n4cnc5c(N)ncnc54)O[C@@H]3COP(=O)(O)O[C@H]3C[C@H](n4cnc5c(=O)[nH]c(N)nc54)O[C@@H]3CO)O2)c(=O)nc1N", "values": [{"measurement": "Activity", "setting": "Nucleic Acid [1]", "result": "inactive"}, {"measurement": "Activity", "setting": "Nucleic Acid [2]", "result": "inactive"}, {"measurement": "Activity", "setting": "Nucleic Acid [3]", "result": "Active"}, {"measurement": "Activity", "setting": "Nucleic Acid [4]", "result": "Active"}]}
{"compound": "Cc1cn([C@H]2C[C@H](OP(=O)(O)OC[C@H]3O[C@@H](n4ccc(N)nc4=O)C[C@@H]3OP(=O)(O)OC[C@H]3O[C@@H](n4cnc5c(N)ncnc54)C[C@@H]3OP(=O)(O)OC[C@H]3O[C@@H](n4cnc5c(N)ncnc54)C[C@@H]3OP(=O)(O)OC[C@H]3O[C@@H](n4cnc5c(=O)[nH]c(N)nc54)C[C@@H]3OP(=O)(O)OC[C@H](Cn3cnc4cc5c(N)ncnc5nc43)OP(=O)(O)OC[C@H]3O[C@@H](n4cnc5c(=O)[nH]c(N)nc54)C[C@@H]3OP(=O)(O)CC[C@H]3O[C@@H](n4cc(C)c(=O)[nH]c4=O)C[C@@H]3OP(=O)(O)OC[C@H]3O[C@@H](n4cnc5c(N)ncnc54)C[C@@H]3OP(=O)(O)OC[C@H]3O[C@@H](n4cc(C)c(=O)[nH]c4=O)C[C@@H]3OP(=O)(O)OC[C@H]3O[C@@H](n4ccc(N)nc4=O)C[C@@H]3OP(=O)(O)OC[C@H]3O[C@@H](n4cc(C)c(=O)[nH]c4=O)C[C@@H]3OP(=O)(O)OC[C@H]3O[C@@H](n4ccc(N)nc4=O)C[C@@H]3OP(=O)(O)OC[C@H]3O[C@@H](n4cc(C)c(=O)[nH]c4=O)C[C@@H]3O)[C@@H](COP(=O)(O)O[C@H]3C[C@H](n4cnc5c(=O)[nH]c(N)nc54)O[C@@H]3COP(=O)(O)O[C@H]3C[C@H](n4cnc5c(=O)[nH]c(N)nc54)O[C@@H]3COP(=O)(O)O[C@H]3C[C@H](n4cnc5c(N)ncnc54)O[C@@H]3COP(=O)(O)O[C@H]3C[C@H](n4cnc5c(N)ncnc54)O[C@@H]3COP(=O)(O)O[C@H]3C[C@H](n4cnc5c(=O)[nH]c(N)nc54)O[C@@H]3CO)O2)c(=O)nc1N", "values": [{"measurement": "Activity", "setting": "Nucleic Acid [1]", "result": "Active"}, {"measurement": "Activity", "setting": "Nucleic Acid [2]", "result": "Active"}, {"measurement": "Activity", "setting": "Nucleic Acid [3]", "result": "inactive"}, {"measurement": "Activity", "setting": "Nucleic Acid [4]", "result": "Active"}]}
{"compound": "Cc1cn([C@H]2C[C@H](OP(=O)(O)OC[C@H]3O[C@@H](n4ccc(N)nc4=O)C[C@@H]3OP(=O)(O)OC[C@H]3O[C@@H](n4cnc5c(N)ncnc54)C[C@@H]3OP(=O)(O)OC[C@H]3O[C@@H](n4cnc5c(N)ncnc54)C[C@@H]3OP(=O)(O)OC[C@H](Cn3cnc4cc5c(N)ncnc5nc43)OP(=O)(O)OC[C@H]3O[C@@H](n4cnc5c(N)ncnc54)C[C@@H]3OP(=O)(O)OC[C@H]3O[C@@H](n4cnc5c(=O)[nH]c(N)nc54)C[C@@H]3OP(=O)(O)CC[C@H]3O[C@@H](n4cc(C)c(=O)[nH]c4=O)C[C@@H]3OP(=O)(O)OC[C@H]3O[C@@H](n4cnc5c(N)ncnc54)C[C@@H]3OP(=O)(O)OC[C@H]3O[C@@H](n4cc(C)c(=O)[nH]c4=O)C[C@@H]3OP(=O)(O)OC[C@H]3O[C@@H](n4ccc(N)nc4=O)C[C@@H]3OP(=O)(O)OC[C@H]3O[C@@H](n4cc(C)c(=O)[nH]c4=O)C[C@@H]3OP(=O)(O)OC[C@H]3O[C@@H](n4ccc(N)nc4=O)C[C@@H]3OP(=O)(O)OC[C@H]3O[C@@H](n4cc(C)c(=O)[nH]c4=O)C[C@@H]3O)[C@@H](COP(=O)(O)O[C@H]3C[C@H](n4cnc5c(=O)[nH]c(N)nc54)O[C@@H]3COP(=O)(O)O[C@H]3C[C@H](n4cnc5c(=O)[nH]c(N)nc54)O[C@@H]3COP(=O)(O)O[C@H]3C[C@H](n4cnc5c(N)ncnc54)O[C@@H]3COP(=O)(O)O[C@H]3C[C@H](n4cnc5c(N)ncnc54)O[C@@H]3COP(=O)(O)O[C@H]3C[C@H](n4cnc5c(=O)[nH]c(N)nc54)O[C@@H]3CO)O2)c(=O)nc1N", "values": [{"measurement": "Activity", "setting": "Nucleic Acid [1]", "result": "Active"}, {"measurement": "Activity", "setting": "Nucleic Acid [2]", "result": "Active"}, {"measurement": "Activity", "setting": "Nucleic Acid [3]", "result": "Active"}, {"measurement": "Activity", "setting": "Nucleic Acid [4]", "result": "inactive"}]}
{"compound": "Cc1cn([C@H]2C[C@H](OP(=O)(O)OC[C@H]3O[C@@H](n4ccc(N)nc4=O)C[C@@H]3OP(=O)(O)OC[C@H]3O[C@@H](n4cnc5c(N)ncnc54)C[C@@H]3OP(=O)(O)OC[C@H]3O[C@@H](n4cnc5c(N)ncnc54)C[C@@H]3OP(=O)(O)OC[C@H]3O[C@@H](n4cnc5c(N)ncnc54)C[C@@H]3OP(=O)(O)OC[C@H](Cn3cnc4cc5c(N)ncnc5nc43)OP(=O)(O)OC[C@H]3O[C@@H](n4cnc5c(=O)[nH]c(N)nc54)C[C@@H]3OP(=O)(O)CC[C@H]3O[C@@H](n4cc(C)c(=O)[nH]c4=O)C[C@@H]3OP(=O)(O)OC[C@H]3O[C@@H](n4cnc5c(N)ncnc54)C[C@@H]3OP(=O)(O)OC[C@H]3O[C@@H](n4cc(C)c(=O)[nH]c4=O)C[C@@H]3OP(=O)(O)OC[C@H]3O[C@@H](n4ccc(N)nc4=O)C[C@@H]3OP(=O)(O)OC[C@H]3O[C@@H](n4cc(C)c(=O)[nH]c4=O)C[C@@H]3OP(=O)(O)OC[C@H]3O[C@@H](n4ccc(N)nc4=O)C[C@@H]3OP(=O)(O)OC[C@H]3O[C@@H](n4cc(C)c(=O)[nH]c4=O)C[C@@H]3O)[C@@H](COP(=O)(O)O[C@H]3C[C@H](n4cnc5c(=O)[nH]c(N)nc54)O[C@@H]3COP(=O)(O)O[C@H]3C[C@H](n4cnc5c(=O)[nH]c(N)nc54)O[C@@H]3COP(=O)(O)O[C@H]3C[C@H](n4cnc5c(N)ncnc54)O[C@@H]3COP(=O)(O)O[C@H]3C[C@H](n4cnc5c(N)ncnc54)O[C@@H]3COP(=O)(O)O[C@H]3C[C@H](n4cnc5c(=O)[nH]c(N)nc54)O[C@@H]3CO)O2)c(=O)nc1N", "values": [{"measurement": "Activity", "setting": "Nucleic Acid [1]", "result": "Active"}, {"measurement": "Activity", "setting": "Nucleic Acid [2]", "result": "Active"}, {"measurement": "Activity", "setting": "Nucleic Acid [3]", "result": "Active"}, {"measurement": "Activity", "setting": "Nucleic Acid [4]", "result": "inactive"}]}
{"compound": "Cc1cn([C@H]2C[C@H](OP(=O)(O)OC[C@H]3O[C@@H](n4ccc(N)nc4=O)C[C@@H]3OP(=O)(O)OC[C@H]3O[C@@H](n4cnc5c(N)ncnc54)C[C@@H]3OP(=O)(O)OC[C@H]3O[C@@H](n4cnc5c(N)ncnc54)C[C@@H]3OP(=O)(O)OC[C@H](Cn3cnc4cc5c(N)ncnc5nc43)OP(=O)(O)OC[C@H]3O[C@@H](n4cnc5c(=O)[nH]c(N)nc54)C[C@@H]3OP(=O)(O)OC[C@H]3O[C@@H](n4cnc5c(=O)[nH]c(N)nc54)C[C@@H]3OP(=O)(O)CC[C@H]3O[C@@H](n4cc(C)c(=O)[nH]c4=O)C[C@@H]3OP(=O)(O)OC[C@H]3O[C@@H](n4cnc5c(N)ncnc54)C[C@@H]3OP(=O)(O)OC[C@H]3O[C@@H](n4cc(C)c(=O)[nH]c4=O)C[C@@H]3OP(=O)(O)OC[C@H]3O[C@@H](n4ccc(N)nc4=O)C[C@@H]3OP(=O)(O)OC[C@H]3O[C@@H](n4cc(C)c(=O)[nH]c4=O)C[C@@H]3OP(=O)(O)OC[C@H]3O[C@@H](n4ccc(N)nc4=O)C[C@@H]3OP(=O)(O)OC[C@H]3O[C@@H](n4cc(C)c(=O)[nH]c4=O)C[C@@H]3O)[C@@H](COP(=O)(O)O[C@H]3C[C@H](n4cnc5c(=O)[nH]c(N)nc54)O[C@@H]3COP(=O)(O)O[C@H]3C[C@H](n4cnc5c(=O)[nH]c(N)nc54)O[C@@H]3COP(=O)(O)O[C@H]3C[C@H](n4cnc5c(N)ncnc54)O[C@@H]3COP(=O)(O)O[C@H]3C[C@H](n4cnc5c(N)ncnc54)O[C@@H]3COP(=O)(O)O[C@H]3C[C@H](n4cnc5c(=O)[nH]c(N)nc54)O[C@@H]3CO)O2)c(=O)nc1N", "values": [{"measurement": "Activity", "setting": "Nucleic Acid [1]", "result": "Active"}, {"measurement": "Activity", "setting": "Nucleic Acid [2]", "result": "Active"}, {"measurement": "Activity", "setting": "Nucleic Acid [3]", "result": "inactive"}, {"measurement": "Activity", "setting": "Nucleic Acid [4]", "result": "Active"}]}
{"compound": "Cc1cn([C@H]2C[C@H](OP(=O)(O)OC[C@H]3O[C@@H](n4ccc(N)nc4=O)C[C@@H]3OP(=O)(O)OC[C@H]3O[C@@H](n4cnc5c(N)ncnc54)C[C@@H]3OP(=O)(O)OC[C@H]3O[C@@H](n4cnc5c(N)ncnc54)C[C@@H]3OP(=O)(O)OC[C@H](Cn3cnc4cc5c(N)ncnc5nc43)OP(=O)(O)OC[C@H]3O[C@@H](n4ccc(N)nc4=O)C[C@@H]3OP(=O)(O)OC[C@H]3O[C@@H](n4cnc5c(=O)[nH]c(N)nc54)C[C@@H]3OP(=O)(O)CC[C@H]3O[C@@H](n4cc(C)c(=O)[nH]c4=O)C[C@@H]3OP(=O)(O)OC[C@H]3O[C@@H](n4cnc5c(N)ncnc54)C[C@@H]3OP(=O)(O)OC[C@H]3O[C@@H](n4cc(C)c(=O)[nH]c4=O)C[C@@H]3OP(=O)(O)OC[C@H]3O[C@@H](n4ccc(N)nc4=O)C[C@@H]3OP(=O)(O)OC[C@H]3O[C@@H](n4cc(C)c(=O)[nH]c4=O)C[C@@H]3OP(=O)(O)OC[C@H]3O[C@@H](n4ccc(N)nc4=O)C[C@@H]3OP(=O)(O)OC[C@H]3O[C@@H](n4cc(C)c(=O)[nH]c4=O)C[C@@H]3O)[C@@H](COP(=O)(O)O[C@H]3C[C@H](n4cnc5c(=O)[nH]c(N)nc54)O[C@@H]3COP(=O)(O)O[C@H]3C[C@H](n4cnc5c(=O)[nH]c(N)nc54)O[C@@H]3COP(=O)(O)O[C@H]3C[C@H](n4cnc5c(N)ncnc54)O[C@@H]3COP(=O)(O)O[C@H]3C[C@H](n4cnc5c(N)ncnc54)O[C@@H]3COP(=O)(O)O[C@H]3C[C@H](n4cnc5c(=O)[nH]c(N)nc54)O[C@@H]3CO)O2)c(=O)nc1N", "values": [{"measurement": "Activity", "setting": "Nucleic Acid [1]", "result": "Active"}, {"measurement": "Activity", "setting": "Nucleic Acid [2]", "result": "inactive"}, {"measurement": "Activity", "setting": "Nucleic Acid [3]", "result": "Active"}, {"measurement": "Activity", "setting": "Nucleic Acid [4]", "result": "Active"}]}
